Legend:
Salmonella typhimurium [1] = assay: Antimutagenic activity in Salmonella Typhimurium TA100 assessed as inhibition of ethyl methanesulfonate-induced mutation at 7.8 uM treated for 30 mins and measured after 2 days by modified Ames test; assay type: functional, Salmonella enterica subsp. enterica serovar Typhimurium; conditions: Salmonella enterica
Salmonella typhimurium [2] = assay: Antimutagenic activity in Salmonella Typhimurium TA100 assessed as inhibition of ethyl methanesulfonate-induced mutation at 3.9 uM treated for 30 mins and measured after 2 days by modified Ames test; assay type: functional, Salmonella enterica subsp. enterica serovar Typhimurium; conditions: Salmonella enterica
Salmonella typhimurium [3] = assay: Antimutagenic activity in Salmonella Typhimurium TA100 assessed as inhibition of ethyl methanesulfonate-induced mutation at 31.3 uM treated for 30 mins and measured after 2 days by modified Ames test; assay type: functional, Salmonella enterica subsp. enterica serovar Typhimurium; conditions: Salmonella enterica
Salmonella typhimurium [4] = assay: Antimutagenic activity in Salmonella Typhimurium TA100 assessed as inhibition of ethyl methanesulfonate-induced mutation at 82.5 uM treated for 30 mins and measured after 2 days by modified Ames test; assay type: functional, Salmonella enterica subsp. enterica serovar Typhimurium; conditions: Salmonella enterica
Salmonella typhimurium [5] = assay: Antimutagenic activity in Salmonella Typhimurium TA100 assessed as inhibition of ethyl methanesulfonate-induced mutation at 15.6 ug/mL treated for 30 mins and measured after 2 days by modified Ames test; assay type: functional, Salmonella enterica subsp. enterica serovar Typhimurium; conditions: Salmonella enterica
[6] = Cytotoxicity against Salmonella Typhimurium TA100 assessed as maximun non-toxic concentrations after 15 hrs […]; assay type: organism-based; conditions: salmonella enterica subsp. enterica serovar typhimurium, Salmonella Typhimurium TA100 cells; read-out: Activity
Salmonella typhimurium [7] = assay: Antimutagenic activity in Salmonella Typhimurium TA100 assessed as inhibition of ethyl methanesulfonate-induced mutation at 3.9 to 125 uM treated for 30 mins and measured after 2 days by modified Ames test; assay type: functional, Salmonella enterica subsp. enterica serovar Typhimurium
Salmonella typhimurium [8] = assay: Antimutagenic activity in Salmonella Typhimurium TA100 assessed as inhibition of ethyl methanesulfonate-induced mutation at 25 ug/mL treated for 30 mins and measured after 2 days by modified Ames test; assay type: functional, Salmonella enterica subsp. enterica serovar Typhimurium; conditions: Salmonella enterica
Salmonella typhimurium [9] = assay: Antimutagenic activity in Salmonella Typhimurium TA100 assessed as inhibition of ethyl methanesulfonate-induced mutation at 125 uM treated for 30 mins and measured after 2 days by modified Ames test; assay type: functional, Salmonella enterica subsp. enterica serovar Typhimurium; conditions: Salmonella enterica

Compound | inhibition at 7.8 µM (Salmonella typhimurium [1]) [%] | inhibition at 3.9 µM (Salmonella typhimurium [2]) [%] | other results
CC(C)=CCc1cc(/C=C/CO)ccc1O | 27.1 | 20.2 | inhibition at 31.3 µM (Salmonella typhimurium [3]): 36.8%
COC(=O)/C=C/c1ccc(O)c(CC=C(C)C)c1 [PLICATIN B] | 30.2 | 25.4 | –
COC(=O)/C=C/c1ccc(OC)c(CC=C(C)C)c1 [PALICATIN B METHYL ETHER] | 21.5 | 13.2 | –
COC(=O)/C=C/c1ccc(O)cc1 [METHYL P-HYDROXYCINNAMATE] | 0.9 | 0 | inhibition at 82.5 µM (Salmonella typhimurium [4]): 7.6%
CC(C)=CCc1cc(/C=C/C(=O)O)ccc1O [DRUPANIN] | 0.6 | 0.3 | inhibition at 15.6 µg/mL (Salmonella typhimurium [5]): 12%
COC(=O)CCc1ccc(O)c(CC=C(C)C)c1 | 38.5 | 25.2 | MNTC at 15 h [6]: 31.3 µM; inhibition at 31.3 µM (Salmonella typhimurium [3]): 46.8%
COC(=O)CCc1ccc(O)cc1 [4-HYDROXYHYDROCINNAMIC ACID METHYL ESTER] | – | – | inhibition (INH) (Salmonella typhimurium [7]): 0%
O=C/C=C/c1ccccc1 [CINNAMALDEHYDE] | – | – | MNTC at 15 h [6]: 25 µg/mL; inhibition at 25 µg/mL (Salmonella typhimurium [8]): 30%
O=C(O)/C=C/c1ccc(O)cc1 [COUMARIC ACID] | 13.6 | 11.2 | inhibition at 125 µM (Salmonella typhimurium [9]): 49.8%

— ChEMBL document CHEMBL1157993, “Structure-antimutagenic activity relationship study of plicatin B” (J Nat Prod, 1999)
